This assay concerns IL-8 promoter. As to the kind of experiment: IL-8 promoter luciferase reporter assay in BEAS-2B. Format: cell-based, human. Conditions: HAST 300 mU/mL, 3 hours. As to the method:
About 1.5 Kb and 162 bp of the promoter domains (Mukaida N. et al., J. Immunol., 143: 1366-1371, 1989) of IL-8 were cloned with LA-PCR (produced by Takara Shuzo Co.) using human genome DNA as a template, a forward primer: IL8-1481; […], a forward primer: IL8-162; […], a reverse primer: IL8LUC-R; […]. The PCR was carried out at 98° C. for 20 sec, at 58° C. for one minute and at 68° C. for 5 minutes in 25 cycles. The obtained DNA fragments of the promoter domains of about 1.5 Kb and about 0.25 Kb were named IL8-1481 and IL8-162, respectively.
A DNA fragment containing from ATG (translation-starting codon) to NarI site in the luciferase gene of pGL3-Basic (produced by Promega Corp.) was amplified by a PCR method using a forward primer: IL8LUC-F; […] and a reverse primer: LUC2087R; […]. This luciferase gene N-terminal DNA fragment was ligated to the IL8-1481 and the IL8-162 by a PCR method to obtain the PCR fragments IL8-1481-Luc (about 2 Kb) and IL8-162-Luc (about 800 bp). […]
The luciferase activity was assayed with Pica Gene Dual•Renilla reniformis (produced by Toyo Ink Co.,). […] First, 100 μL of Pica Gene luminescent reagent II was added, and the luminescence due to the firefly luciferase was assayed with a luminometer (LUMINOUS CT-9000D (produced by DIA-IATRON Corp.)). […]
A general note: Reporter assays use an easily measured gene product as a stand-in for the process of interest.

As to “HAST: human airway-specific trypsin-like enzyme; propeptide moiety bound to trypsin-like protein moiety via a disulfide bond”, the “production of the IL-8 at a transcription level (reporter activity)” value is given as “promoted”.

(Values after patent US20040038369A1, “Airway-specific trypsin-like enzymes and method of using the same” (priority 2000, published 2004).)
